In article PMC10761119, “Phosphorylation-state dependent intraneuronal sorting of Aβ differentially impairs autophagy and the endo-lysosomal system” (Autophagy, 2023):

Tests used:
SH-SY5Y cells = assay: Autophagic flux with tandem reporter mCherry-GFP-LC3B; type: cell-based, human; settings: Aβ 1 µM, 24 h, n = 8, N = 4; for Mander's overlap coefficient, R, of Aβ with GFP-positive vesicles / Mander's overlap coefficient, R, of Aβ with mCherry-positive vesicles: mean ± S.D.
Procedure: SH-SY5Y cells were transfected with either GFP-LC3-LC3Δ-RFP or mCherry-GFP-LC3B tandem constructs (0.5 μg/well +1 µl transfection reagent − 24 well plate) with Lipofectamine 2000 (Life Technologies, 11668019) in OptiMEM (Life Technologies, 11058021) in DMEM/F-12, FCS^− PS^− media. After 8 h, FCS^− PS^− media was changed to normal culture media, respectively. Transfection efficiency was around 50–60% in all analyzed coverslips.
(§1) SH-SY5Y cells seeded on D1, were treated with Aβ variants (1 μM) on D3 in DMEM/F-12 media without serum and antibiotics. Control treatment included treatment with equal volume of 10 mM NaOH solution used for preparing the Aβ stock solutions, in respective cell culture medium. SH-SY5Y cells, after 16 h of transient expression of the reporter constructs, were treated with different Aβ variants, autophagy modulator substrates and respective controls in DMEM/F-12, FCS^− PS^− media for the mentioned time points. After treatment, cells were washed twice with PBS and with 0.025% trypsin-EDTA in PBS to get rid of cell bound Aβ, followed by subsequent washings with PBS again. Cells were either collected by scraping using a cell-scraper or fixed with 4% PFA-PBS for 15 min at RT, for further immunocytochemistry experiments. Collected treatment media was centrifuged at 1000 g for 5 min, pellet discarded and supernatant frozen at −20°C until further usage.
All images were processed and analyzed using Fiji ImageJ software. Mander’s overlap coefficient (Figure 1B–D; Figure 2B–F; Figure 4B–F; Figure 6E; S2B, D; S4B, D; S6D, F) analysis was done using the colocalization processing module of the Fiji ImageJ plugin. Distance from the plaque core (Figure 1B) was measured using the concentric circles plugin module. Fluorescence intensity of the green channel (Figure S3A-B), and the number of neurons positive for Aβ signals (Figure S3-D) were quantified using the processing module of Keyence software. Intensity analysis (Figure S4E-I) was performed by manually selecting the region of interest (ROI) and measuring the intensity of the individual channels in the selected area. RFP/GFP (Figure 6A) and LysoSensor Green/Blue (Figure 7A) ratiometric images were created by using the image calculator module. Intensity of green and red channel for a particular ROI was calculated and ratios of the individual values were computed (Figure 6B and S7A). For computing the number of mCherry^+GFP^± vesicles or per cell (Figure 6D and S7B), cell outline was drawn manually and number of vesicles per cell (nucleus count – DAPI) was calculated. Similarly, the number of perinuclear and peripheral LAMP2-positive lysosomes or percentage of LAMP2 compartments containing Aβ was computed using the concentric circle processing module (Figure 7D). Due to slight variability in transfection efficiency or the number of cells in different experimental set-ups, the readings from each experiment were averaged and normalized to the control cells from that particular set. Average values from each experiment were normalized to the respective controls in the same set. Values from independent experiments were then computed and values are represented as independent data points.

primary cortical neurons = assay: SDS-PAGE and immunoblotting of marker proteins in membrane and cytosolic fractions; type: cell-based, mouse; settings: Aβ 500 nM, 4 h, normalized to Actin/GAPDH, fold change wrt control cells, mean ± S.E.M., n = 6, N = 3; for CTSD mature* level / CTSD pro* level / EEA1* level / RAB5* level / RAB7* level / RAB11* level / SQSTM1/p62* level / UBQ* level: cytosolic fraction; for ATG3 level / ATG5 level / ATG12–ATG5 level / ATG14 level / LAMP2 level / LC3-I level / LC3-II level / ULK1/Atg1 level: membrane fraction
Procedure: [Worded in the source for another cell line; used here, by the source, with some conditions changed.] as §1
Cells were collected by scraping and mechanically homogenized in hypotonic D buffer (10 mM Tris-HCl, pH 7.4, 10 mM NaCl, 0.1 mM EGTA, 25 mM glycerol 2-phosphate, 1 mM DTT) containing protease and phosphatase inhibitors by repeated suspension through a 23 G × 1” needle. Post-nuclear supernatant (PNS) was collected by centrifugation of the mechanically homogenized cellular material at 2,000 g for 5 min. The pellet was the nuclear material. Nuclear pellet was then resuspended in Buffer C (5 mM HEPES, 1.5 mM MgCl2, 0.2 mM EDTA, 0.5 mM DTT, 0.05% NP40 [Sigma Aldrich, 18876], 30% glycerol, pH 7.9) containing protease and phosphatase inhibitors, ultrasonicated at minimum voltage, three currents in four cycles, followed by repetitive cooling of samples on ice. The nuclear fraction was the supernatant collected after centrifugation at 16,100 g for 15 min. The PNS collected from the first step was centrifuged at 16,100 g for 60 min, and supernatant was used as the crude cytosolic fraction. The pellet contained the membrane materials, which were re-homogenized in hypotonic D buffer and again centrifuged at 16,100 g for 60 min. The supernatant was discarded, pellet was resuspended in STEN-lysis buffer (20 mM Tris-HCl, pH 7.5, 150 mM NaCl, 1 mM EDTA, 1 mM EGTA, 1% Triton X-100, 2.5 mM sodium pyrophosphate [Sigma Aldrich, P1835], 1 mM β-glycerophosphate [Sigma Aldrich, G9422]) containing protease and phosphatase inhibitors, and the membrane fraction was the supernatant collected after centrifugation at 16,100 g for 15 min. The crude cytosolic fraction was then further fractionated at 100,000 g for 70 min at 4°C under vacuum. The resultant supernatant was the soluble cytosolic fraction. The pellet was resuspended in STEN lysis buffer and centrifuged at 16,100 g for 15 min. The resultant supernanant represented the insoluble cytosolic fraction.
For different cellular fractions prepared as described earlier, the protein content was estimated using the standard Pierce™ BCA protein assay kit (ThermoFisher Scientific, 23225). For direct comparison between the samples, equal amount of protein was loaded. Samples were dissolved in Laemmli buffer and were boiled at 95°C for 5 min. They were loaded on a precast 4–12% NuPage® Bis-Tris gels (Life technologies, NP033–5/6, WG140–2/3). Gels and prestained protein molecular weight markers were purchased from Life technologies. The separated proteins were electro-transferred onto a 0.2-μm nitrocellulose (NT) membrane (Amersham, 1060001) for 1 h 45 min. After blotting, the NT membranes were boiled in PBS for 10 min. Ponceau staining was done to monitor protein loading of samples. The blots were then incubated in 5% skim milk in TBS-T (TBS [50 mM Tris-HCl, pH 7.5, 150 mM NaCl] containing 0.1% Tween 20 [Sigma Aldrich, P1379]) for 1 h at RT. Blots were incubated overnight at 4°C in the primary antibody solution (respective dilutions in TBS-T, Table 1). Blots were washed and incubated with appropriate secondary antibodies conjugated either with HRP or fluorescent dyes for 1 h. […]

Substance | Mander's overlap coefficient, R, of Aβ with GFP-positive vesicles (SH-SY5Y cells) | Mander's overlap coefficient, R, of Aβ with mCherry-positive vesicles (SH-SY5Y cells) | Number of mCherry+ GFP− vesicles per cell (SH-SY5Y cells) | CTSD mature* level (primary cortical neurons) | CTSD pro* level (primary cortical neurons) | EEA1* level (primary cortical neurons) | RAB5* level (primary cortical neurons) | RAB7* level (primary cortical neurons) | RAB11* level (primary cortical neurons) | SQSTM1/p62* level (primary cortical neurons) | UBQ* level (primary cortical neurons) | ATG3 level (primary cortical neurons) | ATG5 level (primary cortical neurons) | ATG12–ATG5 level (primary cortical neurons) | ATG14 level (primary cortical neurons) | LAMP2 level (primary cortical neurons) | LC3-I level (primary cortical neurons) | LC3-II level (primary cortical neurons) | ULK1/Atg1 level (primary cortical neurons) | also measured
amyloid-β phosphorylated at serine residue 8 [p-Ser8Aβ] | 0.56 ± 0.10 | 0.57 ± 0.06 | significantly least | 0.94 ± 0.09 fold change | 0.99 ± 0.04 fold change | 1.65 ± 0.21 fold change | 1.26 ± 0.09 fold change | 0.95 ± 0.17 fold change | 1.75 ± 0.29 fold change | 1.49 ± 0.06 fold change | 1.62 ± 0.14 fold change | 1.23 ± 0.38 fold change | 1.18 ± 0.1 fold change | 1.18 ± 0.2 fold change | 1.17 ± 0.05 fold change | 0.97 ± 0.06 fold change | 1.43 ± 0.15 fold change | 1.95 ± 0.14 fold change | 0.88 ± 0.22 fold change | Number of mCherry+ GFP+ vesicles per cell (SH-SY5Y cells; compared to control and to p-Ser26Aβ treated cells): significantly higher
amyloid-β phosphorylated at serine residue 26 [p-Ser26Aβ] | 0.30 ± 0.05 | 0.70 ± 0.05 | significantly higher number | 1.46 ± 0.11 fold change | 1.19 ± 0.05 fold change | 1.28 ± 0.12 fold change | 1.47 ± 0.11 fold change | 1.25 ± 0.12 fold change | 1.89 ± 0.06 fold change | 1.41 ± 0.08 fold change | 2.11 ± 0.4 fold change | 1.38 ± 0.32 fold change | 1.31 ± 0.11 fold change | 1.43 ± 0.23 fold change | 1.58 ± 0.17 fold change | 1.23 ± 0.07 fold change | 1.45 ± 0.12 fold change | 1.42 ± 0.2 fold change | 1.74 ± 0.36 fold change | 
non-phosphorylated amyloid-β [npAβ, reference compound] | 0.40 ± 0.05 | 0.61 ± 0.04 |  | 1.08 ± 0.07 fold change | 0.99 ± 0.06 fold change | 1.22 ± 0.15 fold change | 1.08 ± 0.07 fold change | 1.1 ± 0.08 fold change | 1.47 ± 0.22 fold change | 1.19 ± 0.02 fold change | 1.36 ± 0.19 fold change | 1.23 ± 0.21 fold change | 1.08 ± 0.11 fold change | 1.04 ± 0.09 fold change | 1.27 ± 0.08 fold change | 1.16 ± 0.08 fold change | 1.37 ± 0.06 fold change | 1.48 ± 0.06 fold change | 1.37 ± 0.35 fold change | Ratio of mCherry:GFP fluorescence intensities (SH-SY5Y cells; compared to control cells): not significantly altered
